Measured values from ChEMBL document CHEMBL4507259 (2021).

How the values were obtained:
[1] = molecular target: cAMP-dependent protein kinase catalytic subunit PRKX (Homo sapiens) (UniProt P51817); settings: Compound concentration 1000.0 nM
[2] = molecular target: Serine/threonine-protein kinase SIK1 (Homo sapiens) (UniProt P57059); settings: Compound concentration 1000.0 nM
[3] = molecular target: Serine/threonine-protein kinase 17A (Homo sapiens) (UniProt Q9UEE5); settings: Compound concentration 1000.0 nM
[4] = molecular target: Calcium/calmodulin-dependent protein kinase type II subunit beta (Homo sapiens) (UniProt Q13554); settings: Compound concentration 1000.0 nM
[5] = molecular target: Tyrosine-protein kinase HCK (Homo sapiens) (UniProt P08631); settings: Compound concentration 1000.0 nM
[6] = molecular target: Serine/threonine-protein kinase SIK2 (Homo sapiens) (UniProt Q9H0K1); settings: Compound concentration 1000.0 nM
[7] = molecular target: Serine/threonine-protein kinase Nek2 (Homo sapiens) (UniProt P51955); settings: Compound concentration 1000.0 nM
[8] = molecular target: Tyrosine-protein kinase receptor TYRO3 (Homo sapiens) (UniProt Q06418); settings: Compound concentration 1000.0 nM
[9] = molecular target: T1, Muscarinic acetylcholine receptor M5 (Homo sapiens) (UniProt P08912); test: M5 (h) CEREP ligand profiling; settings: filed as antagonist, Compound concentration 10.0 uM
T1 sequence (whole entry): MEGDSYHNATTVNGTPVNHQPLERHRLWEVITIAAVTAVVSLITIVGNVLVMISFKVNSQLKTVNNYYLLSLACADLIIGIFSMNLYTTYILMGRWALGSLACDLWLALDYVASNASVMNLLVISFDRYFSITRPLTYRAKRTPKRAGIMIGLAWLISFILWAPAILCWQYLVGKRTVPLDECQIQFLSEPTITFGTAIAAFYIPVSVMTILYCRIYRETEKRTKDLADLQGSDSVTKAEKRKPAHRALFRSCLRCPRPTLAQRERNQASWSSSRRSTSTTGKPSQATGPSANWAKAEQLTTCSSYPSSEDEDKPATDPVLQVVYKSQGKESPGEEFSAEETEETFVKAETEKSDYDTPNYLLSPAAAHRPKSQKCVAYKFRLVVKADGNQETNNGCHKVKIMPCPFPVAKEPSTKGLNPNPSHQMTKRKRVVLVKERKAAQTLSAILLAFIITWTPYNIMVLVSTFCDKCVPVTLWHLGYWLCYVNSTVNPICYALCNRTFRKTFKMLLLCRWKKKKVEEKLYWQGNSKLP

[10] = molecular target: Cyclin-dependent kinase 2 homolog (Plasmodium falciparum (isolate 3D7)) (UniProt P61075); settings: Compound concentration 1000.0 nM
[11] = molecular target: Phosphatidylinositol 4-phosphate 5-kinase type-1 alpha (Homo sapiens) (UniProt Q99755); settings: Compound concentration 1000.0 nM
[12] = molecular target: Mitogen-activated protein kinase 12 (Homo sapiens) (UniProt P53778); settings: Compound concentration 1000.0 nM
[13] = molecular target: Serine/threonine-protein kinase WNK1 (Homo sapiens) (UniProt Q9H4A3); settings: Compound concentration 1000.0 nM
[14] = system: Epidermal growth factor receptor (Homo sapiens), P00533 [L858R]; settings: Compound concentration 1000.0 nM
[15] = molecular target: T2, 5-hydroxytryptamine receptor 2C (Homo sapiens) (UniProt P28335); test: 5-HT2C (h) CEREP ligand profiling; settings: filed as antagonist, Compound concentration 10.0 uM
T2 sequence (whole entry): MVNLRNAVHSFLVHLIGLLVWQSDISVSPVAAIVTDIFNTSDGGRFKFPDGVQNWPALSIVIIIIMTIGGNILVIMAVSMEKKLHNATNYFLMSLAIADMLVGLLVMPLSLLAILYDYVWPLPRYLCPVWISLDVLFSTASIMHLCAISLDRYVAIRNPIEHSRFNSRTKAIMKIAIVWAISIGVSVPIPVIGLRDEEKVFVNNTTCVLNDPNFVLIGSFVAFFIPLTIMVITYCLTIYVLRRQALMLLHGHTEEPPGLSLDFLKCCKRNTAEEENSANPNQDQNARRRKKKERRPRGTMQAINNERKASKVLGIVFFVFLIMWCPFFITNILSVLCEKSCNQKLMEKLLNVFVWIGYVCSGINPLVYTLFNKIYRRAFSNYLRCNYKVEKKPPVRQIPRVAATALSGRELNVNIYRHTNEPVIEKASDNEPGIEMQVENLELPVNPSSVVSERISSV

[16] = molecular target: 5-hydroxytryptamine receptor 7 (Homo sapiens) (UniProt P34969); test: 5-HT7 (h) CEREP ligand profiling; settings: filed as agonist, Compound concentration 10.0 uM
[17] = system: Tyrosine-protein kinase ABL1 (Homo sapiens), P00519 [Y253F]; settings: Compound concentration 1000.0 nM
[18] = molecular target: Focal adhesion kinase 1 (Homo sapiens) (UniProt Q05397); settings: Compound concentration 1000.0 nM
[19] = molecular target: Serine/threonine-protein kinase Nek7 (Homo sapiens) (UniProt Q8TDX7); settings: Compound concentration 1000.0 nM
[20] = molecular target: Serine/threonine-protein kinase TAO3 (Homo sapiens) (UniProt Q9H2K8); settings: Compound concentration 1000.0 nM
[21] = molecular target: Death-associated protein kinase 2 (Homo sapiens) (UniProt Q9UIK4); settings: Compound concentration 1000.0 nM
DU-145 = test: DU-145 Proliferation; format: functional, cell-based; settings: Homo sapiens
[22] = molecular target: Inhibitor of nuclear factor kappa-B kinase subunit beta (Homo sapiens) (UniProt O14920); settings: Compound concentration 1000.0 nM
[23] = molecular target: Mitogen-activated protein kinase 15 (Homo sapiens) (UniProt Q8TD08); settings: Compound concentration 1000.0 nM
[24] = molecular target: Phosphorylase b kinase regulatory subunit alpha, liver isoform (Homo sapiens) (UniProt P46019); settings: Compound concentration 1000.0 nM
[25] = molecular target: Dual specificity tyrosine-phosphorylation-regulated kinase 1A (Homo sapiens) (UniProt Q13627); settings: Compound concentration 1000.0 nM
[26] = molecular target: Interferon-induced, double-stranded RNA-activated protein kinase (Homo sapiens) (UniProt P19525); settings: Compound concentration 1000.0 nM
[27] = molecular target: Tyrosine-protein kinase Blk (Homo sapiens) (UniProt P51451); settings: Compound concentration 1000.0 nM
[28] = molecular target: Mitogen-activated protein kinase kinase kinase 4 (Homo sapiens) (UniProt Q9Y6R4); settings: Compound concentration 1000.0 nM
[29] = molecular target: Protein kinase C eta type (Homo sapiens) (UniProt P24723); settings: Compound concentration 1000.0 nM
[30] = molecular target: Serine/threonine-protein kinase Nek4 (Homo sapiens) (UniProt P51957); settings: Compound concentration 1000.0 nM
[31] = molecular target: Serine/threonine-protein kinase Chk2 (Homo sapiens) (UniProt O96017); settings: Compound concentration 1000.0 nM

Sequence of Serine/threonine-protein kinase Nek2 (Homo sapiens) (P51955 whole entry): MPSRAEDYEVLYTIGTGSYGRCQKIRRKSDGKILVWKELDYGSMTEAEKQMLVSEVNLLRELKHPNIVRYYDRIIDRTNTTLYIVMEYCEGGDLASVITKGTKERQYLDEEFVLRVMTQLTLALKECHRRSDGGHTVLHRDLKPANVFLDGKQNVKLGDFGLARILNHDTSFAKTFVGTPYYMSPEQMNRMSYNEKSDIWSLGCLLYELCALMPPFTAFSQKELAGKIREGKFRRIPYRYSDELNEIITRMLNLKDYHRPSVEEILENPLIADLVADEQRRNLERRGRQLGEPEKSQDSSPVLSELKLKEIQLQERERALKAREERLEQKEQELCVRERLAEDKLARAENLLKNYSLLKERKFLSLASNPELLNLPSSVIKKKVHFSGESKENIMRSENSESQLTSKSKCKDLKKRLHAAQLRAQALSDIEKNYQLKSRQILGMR
Sequence of Serine/threonine-protein kinase WNK1 (Homo sapiens) (Q9H4A3 whole entry, looked up): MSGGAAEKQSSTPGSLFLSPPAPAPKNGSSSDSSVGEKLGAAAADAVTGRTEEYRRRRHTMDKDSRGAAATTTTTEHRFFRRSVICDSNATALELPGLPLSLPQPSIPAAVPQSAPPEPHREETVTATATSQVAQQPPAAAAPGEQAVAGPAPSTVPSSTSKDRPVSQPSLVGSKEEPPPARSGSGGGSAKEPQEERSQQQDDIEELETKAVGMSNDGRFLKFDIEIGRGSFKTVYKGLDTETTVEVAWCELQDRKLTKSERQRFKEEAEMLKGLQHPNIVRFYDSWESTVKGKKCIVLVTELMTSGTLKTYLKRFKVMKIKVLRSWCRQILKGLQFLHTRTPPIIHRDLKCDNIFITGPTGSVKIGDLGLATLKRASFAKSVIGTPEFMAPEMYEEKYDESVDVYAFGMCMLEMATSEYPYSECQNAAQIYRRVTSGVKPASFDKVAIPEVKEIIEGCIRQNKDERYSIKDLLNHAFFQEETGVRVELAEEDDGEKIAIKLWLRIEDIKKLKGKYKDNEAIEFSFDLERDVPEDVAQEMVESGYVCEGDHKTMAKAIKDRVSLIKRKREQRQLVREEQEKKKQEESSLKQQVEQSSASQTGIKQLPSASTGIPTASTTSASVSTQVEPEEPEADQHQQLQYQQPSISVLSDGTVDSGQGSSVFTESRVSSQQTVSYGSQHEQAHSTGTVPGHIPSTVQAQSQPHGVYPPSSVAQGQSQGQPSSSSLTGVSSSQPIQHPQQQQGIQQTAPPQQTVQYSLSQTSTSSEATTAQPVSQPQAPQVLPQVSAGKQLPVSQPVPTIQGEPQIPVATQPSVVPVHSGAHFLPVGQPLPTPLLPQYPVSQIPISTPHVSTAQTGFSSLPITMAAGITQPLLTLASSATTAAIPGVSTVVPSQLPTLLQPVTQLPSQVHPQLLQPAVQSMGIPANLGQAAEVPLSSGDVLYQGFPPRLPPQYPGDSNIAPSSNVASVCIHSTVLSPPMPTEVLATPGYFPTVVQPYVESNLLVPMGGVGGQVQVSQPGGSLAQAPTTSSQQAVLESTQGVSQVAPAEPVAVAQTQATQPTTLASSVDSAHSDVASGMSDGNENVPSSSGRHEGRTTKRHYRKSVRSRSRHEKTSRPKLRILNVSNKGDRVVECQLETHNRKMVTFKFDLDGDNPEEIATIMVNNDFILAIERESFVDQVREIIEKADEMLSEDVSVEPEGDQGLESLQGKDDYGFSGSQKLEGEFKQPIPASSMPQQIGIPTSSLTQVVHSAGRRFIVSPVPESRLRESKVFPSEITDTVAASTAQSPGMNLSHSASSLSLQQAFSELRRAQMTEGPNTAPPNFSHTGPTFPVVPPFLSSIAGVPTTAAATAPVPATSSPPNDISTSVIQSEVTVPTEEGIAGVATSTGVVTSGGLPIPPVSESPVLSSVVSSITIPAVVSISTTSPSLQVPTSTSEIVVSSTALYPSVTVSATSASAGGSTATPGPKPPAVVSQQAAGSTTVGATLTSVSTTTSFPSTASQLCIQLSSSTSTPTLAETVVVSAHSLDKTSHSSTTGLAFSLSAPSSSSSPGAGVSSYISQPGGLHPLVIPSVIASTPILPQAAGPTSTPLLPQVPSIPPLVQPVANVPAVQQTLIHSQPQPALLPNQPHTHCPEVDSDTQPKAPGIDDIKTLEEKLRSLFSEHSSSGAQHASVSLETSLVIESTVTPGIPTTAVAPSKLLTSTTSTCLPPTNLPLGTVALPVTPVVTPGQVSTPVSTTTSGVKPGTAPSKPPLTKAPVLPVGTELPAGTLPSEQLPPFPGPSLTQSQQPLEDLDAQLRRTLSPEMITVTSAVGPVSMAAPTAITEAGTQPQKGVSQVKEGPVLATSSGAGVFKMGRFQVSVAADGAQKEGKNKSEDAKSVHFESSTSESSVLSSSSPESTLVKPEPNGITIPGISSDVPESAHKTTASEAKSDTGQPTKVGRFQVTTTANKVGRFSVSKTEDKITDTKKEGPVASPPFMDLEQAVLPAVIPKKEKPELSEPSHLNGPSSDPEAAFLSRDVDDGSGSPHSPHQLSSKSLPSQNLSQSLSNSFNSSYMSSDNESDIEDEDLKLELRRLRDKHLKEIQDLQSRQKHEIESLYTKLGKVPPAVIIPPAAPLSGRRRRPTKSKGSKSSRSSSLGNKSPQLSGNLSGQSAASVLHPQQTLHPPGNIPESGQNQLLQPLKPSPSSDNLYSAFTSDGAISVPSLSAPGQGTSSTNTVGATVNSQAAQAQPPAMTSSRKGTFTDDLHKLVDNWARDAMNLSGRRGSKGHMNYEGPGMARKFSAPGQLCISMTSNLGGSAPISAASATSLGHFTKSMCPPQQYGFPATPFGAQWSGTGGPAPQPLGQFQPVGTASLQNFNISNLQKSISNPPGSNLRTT
Sequence of Serine/threonine-protein kinase 17A (Homo sapiens) (Q9UEE5 whole entry): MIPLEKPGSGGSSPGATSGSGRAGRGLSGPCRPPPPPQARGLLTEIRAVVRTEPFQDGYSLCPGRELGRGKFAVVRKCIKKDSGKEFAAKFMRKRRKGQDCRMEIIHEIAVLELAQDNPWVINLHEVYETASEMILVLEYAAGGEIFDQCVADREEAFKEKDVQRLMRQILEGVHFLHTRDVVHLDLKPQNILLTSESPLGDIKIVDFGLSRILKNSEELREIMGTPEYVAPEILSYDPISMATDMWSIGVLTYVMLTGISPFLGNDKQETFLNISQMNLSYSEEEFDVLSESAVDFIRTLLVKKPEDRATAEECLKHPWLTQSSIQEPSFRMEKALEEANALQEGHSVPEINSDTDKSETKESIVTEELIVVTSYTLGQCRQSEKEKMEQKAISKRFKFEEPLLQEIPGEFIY
Sequence of Focal adhesion kinase 1 (Homo sapiens) (Q05397 2-1052 limits assumed): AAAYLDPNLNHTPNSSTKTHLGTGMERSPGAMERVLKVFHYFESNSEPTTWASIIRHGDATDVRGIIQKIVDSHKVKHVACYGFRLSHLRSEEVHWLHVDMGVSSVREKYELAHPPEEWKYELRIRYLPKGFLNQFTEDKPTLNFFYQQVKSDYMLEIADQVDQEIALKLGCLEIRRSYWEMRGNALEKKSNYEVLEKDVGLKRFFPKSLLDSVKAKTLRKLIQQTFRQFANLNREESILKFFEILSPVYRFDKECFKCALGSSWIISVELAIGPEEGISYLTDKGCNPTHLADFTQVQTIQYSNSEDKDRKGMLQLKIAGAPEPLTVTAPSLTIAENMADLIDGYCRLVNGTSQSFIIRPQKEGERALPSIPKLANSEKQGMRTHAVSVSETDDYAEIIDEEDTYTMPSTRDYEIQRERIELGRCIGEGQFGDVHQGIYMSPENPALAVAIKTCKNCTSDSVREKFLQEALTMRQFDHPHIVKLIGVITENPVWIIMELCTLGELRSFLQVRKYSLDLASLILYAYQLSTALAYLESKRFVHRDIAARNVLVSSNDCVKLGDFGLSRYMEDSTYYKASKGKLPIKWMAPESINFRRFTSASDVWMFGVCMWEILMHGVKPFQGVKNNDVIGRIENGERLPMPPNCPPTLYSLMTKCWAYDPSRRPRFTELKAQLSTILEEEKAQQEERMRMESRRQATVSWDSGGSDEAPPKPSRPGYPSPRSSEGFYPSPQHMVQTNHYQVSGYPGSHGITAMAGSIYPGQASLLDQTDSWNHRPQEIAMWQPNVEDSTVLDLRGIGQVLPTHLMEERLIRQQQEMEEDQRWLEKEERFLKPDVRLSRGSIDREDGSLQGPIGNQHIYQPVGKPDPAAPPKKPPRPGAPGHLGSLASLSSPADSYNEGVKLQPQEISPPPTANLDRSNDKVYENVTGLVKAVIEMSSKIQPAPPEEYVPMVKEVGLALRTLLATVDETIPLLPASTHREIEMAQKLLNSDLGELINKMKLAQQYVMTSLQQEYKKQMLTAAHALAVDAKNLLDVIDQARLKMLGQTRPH
Sequence of Cyclin-dependent kinase 2 homolog (Plasmodium falciparum (isolate 3D7)) (P61075 whole entry): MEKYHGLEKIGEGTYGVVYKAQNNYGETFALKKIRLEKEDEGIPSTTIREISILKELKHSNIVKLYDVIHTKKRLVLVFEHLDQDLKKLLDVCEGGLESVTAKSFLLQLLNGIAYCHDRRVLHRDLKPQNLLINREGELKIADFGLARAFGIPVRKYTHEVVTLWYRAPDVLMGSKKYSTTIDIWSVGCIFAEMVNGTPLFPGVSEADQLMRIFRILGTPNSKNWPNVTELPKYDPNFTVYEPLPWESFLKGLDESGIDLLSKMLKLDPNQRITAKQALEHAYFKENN
Sequence of Mitogen-activated protein kinase 12 (Homo sapiens) (P53778 whole entry): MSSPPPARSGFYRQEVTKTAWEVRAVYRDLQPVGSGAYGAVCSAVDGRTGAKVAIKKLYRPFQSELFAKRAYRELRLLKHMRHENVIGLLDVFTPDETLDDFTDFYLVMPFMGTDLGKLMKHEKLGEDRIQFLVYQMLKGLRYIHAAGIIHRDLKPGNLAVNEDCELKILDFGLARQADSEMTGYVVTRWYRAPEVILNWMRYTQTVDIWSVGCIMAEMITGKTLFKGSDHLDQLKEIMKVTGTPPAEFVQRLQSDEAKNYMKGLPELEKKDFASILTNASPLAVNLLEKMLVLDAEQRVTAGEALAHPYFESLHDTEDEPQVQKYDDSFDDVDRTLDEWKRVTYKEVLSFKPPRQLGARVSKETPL

Compound: CNC(=O)Nc1ccc2c(c1)CC[C@@]21OC(=O)N(CC(=O)N(Cc2ccc(F)cc2)[C@@H](C)C(F)(F)F)C1=O [A-485]
- residual activity [1]: 92%
- residual activity [2]: 98%
- residual activity [3]: 100%
- residual activity [4]: 81%
- residual activity [5]: 99%
- residual activity [6]: 88%
- residual activity [7]: 100%
- residual activity [8]: 81%
- inhibition [9]: 8%
- residual activity [10]: 91%
- residual activity [11]: 95%
- residual activity [12]: 63%
- residual activity [13]: 93%
- residual activity [14]: 96%
- inhibition [15]: -2%
- inhibition [16]: 16%
- residual activity [17]: 81%
- residual activity [18]: 94%
- residual activity [19]: 91%
- residual activity [20]: 74%
- residual activity [21]: 92%
- IC50 (DU-145): > 10 µM (not active)
- residual activity [22]: 83%
- residual activity [23]: 74%
- residual activity [24]: 97%
- residual activity [25]: 64%
- residual activity [26]: 92%
- residual activity [27]: 100%
- residual activity [28]: 89%
- residual activity [29]: 93%
- residual activity [30]: 94%
- residual activity [31]: 100%

Compound: CNC(=O)Nc1ccc2c(c1)[C@@]1(CC2)OC(=O)N(CC(=O)N(Cc2ccc(F)cc2)[C@@H](C)C(F)(F)F)C1=O [A-486]
- residual activity [1]: 100%
- residual activity [2]: 90%
- residual activity [3]: 88%
- residual activity [4]: 100%
- residual activity [5]: 100%
- residual activity [6]: 88%
- residual activity [7]: 100%
- residual activity [8]: 70%
- inhibition [9]: -8%
- residual activity [10]: 95%
- residual activity [11]: 89%
- residual activity [12]: 96%
- residual activity [13]: 79%
- residual activity [14]: 100%
- inhibition [15]: -7%
- inhibition [16]: 6%
- residual activity [17]: 100%
- residual activity [18]: 100%
- residual activity [19]: 100%
- residual activity [20]: 82%
- residual activity [21]: 100%
- IC50 (DU-145): > 10 µM (not active)
- residual activity [22]: 92%
- residual activity [23]: 93%
- residual activity [24]: 100%
- residual activity [25]: 77%
- residual activity [26]: 100%
- residual activity [27]: 100%
- residual activity [28]: 87%
- residual activity [29]: 87%
- residual activity [30]: 100%
- residual activity [31]: 100%
